Data: patent US8877745B2, “CCR2 receptor antagonists, method for producing the same, and use thereof as medicaments” (Boehringer Ingelheim International GmbH, priority 2010, dated 2014)

What follows are compounds tested against T1, CCR2 (Homo sapiens, UniProt P41597) (assay: CCR2 receptor membrane binding assay ([125I]MCP-1, THP-1 cell membranes, SPA beads)). Conditions: THP-1 membranes, [125I]MCP-1, bound radioactivity determined after 8 h; read-out: hKi.
T1 construct: Membranes were prepared from THP-1 cells; endogenous in cells; host or cells: THP-1 (human acute monocytic leukaemia cells), membrane preparation
T1 sequence (P41597 whole entry): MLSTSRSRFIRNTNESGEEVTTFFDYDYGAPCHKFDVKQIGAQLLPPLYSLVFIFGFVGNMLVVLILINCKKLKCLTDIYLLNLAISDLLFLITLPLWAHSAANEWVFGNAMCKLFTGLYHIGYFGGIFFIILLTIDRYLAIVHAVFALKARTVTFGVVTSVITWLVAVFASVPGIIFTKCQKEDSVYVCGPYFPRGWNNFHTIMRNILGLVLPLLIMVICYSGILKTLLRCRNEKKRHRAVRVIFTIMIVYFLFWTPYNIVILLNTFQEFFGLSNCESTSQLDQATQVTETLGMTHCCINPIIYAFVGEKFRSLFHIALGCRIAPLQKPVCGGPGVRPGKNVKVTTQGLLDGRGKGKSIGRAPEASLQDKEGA
Procedure: The above exemplary substances have been tested for binding to CCR2 using a binding assay as outlined herein below:
THP-1 cells (human acute monocytic leukaemia cells) were cultured under standardized conditions at 37° C. and 5% CO2 in a humidified incubator. THP-1 cells were cultivated in RPMI 1640 medium (Gibco 21875) containing 1% MEM-NEAA (Gibso 11140) 2 mM L-glutamine, 1.5 g/L sodium bicarbonate, 4.5 g/L glucose, 10 mM HEPES and 1.0 mM sodium pyruvate, 90%; 10% fetal calf serum (FCS Gibco 10500-064).
Membranes were prepared from THP-1 cells. THP-1 cells were centrifuged at 300×g at 4° C. for 10 min. The cell pellet was resuspended in Phosphate Buffer Saline (PBS, including 10 μM Pefabloc and a protease inhibitor mix ‘complete’, Boehringer Mannheim (1 tablet/50 ml)), to a concentration of […]. The membrane preparation was performed by disrupting the cells by nitrogen […] (at 50 bar, for 1 h) in a “Nitrogen Bombe” (Parr Instrument). Cell debris was removed by centrifugation (800×g at 4° C., 1 min). The supernatant was centrifuged at 80000×g, 4° C. for 30 min to sediment the cell membranes. Usually 50 mg of protein (Bradford assay) were yielded from 1×10E9 cells. The membranes were resuspended in 25 mM HEPES, 25 mM MgCl2, 1 mM CaCl2, 10% Glycerine for storage in aliquots at −80° C. in 25 mM HEPES, 25 mM MgCl2, 1 mM CaCl2, 10% Glycerine and stored at −80° C.
Receptor Membrane Binding Assay:
Perkin Elmer NEX 332 Jod 125 MCP-1, Stock: 2200 Ci/mmol solved in […] assay buffer, stored at −20° C. THP-1 membrane were adjusted with 25 mM HEPES, pH 7.2; 5 mM MgCl2; 0.5 mM CaCl2; 0.2% BSA assay buffer to a concentration of 2.5 μg/15 μl. Amersham Biosciences PVT-WGA Beads (RPNQ0001) were adjusted with assay buffer to a concentration of 0.24 mg/30 μl. For preparation of the membrane-bead-suspension membranes and beads were incubated for 30 min at RT under rotation (60 rpm) with a ratio of 1:2. Test compounds dissolved in 100% DMSO to a concentration of 10 mM and are further diluted with 100% DMSO to 1 mM. All additional compound dilutions were obtained with assay buffer, final 1% DMSO. Compounds, membrane-bead-suspension and [^125I]MCP-1 (ca. 25000 cpm/10 μl) were incubated. Bound radioactivity was determined by scintillation counter after 8 h. Determination of affinity of test compounds (dissociation constant hKi) is calculated by iterative fitting of experimental data using the “easy sys” program, which is based on law of mass action (Schittkowski K. (1994), Numerische Mathematik, Vol. 68, 129-142).
A Ki of 780 nM was found for `COC1COCCC1NC1CCN(C(=O)c2ncnc(N3CCN(c4ccc5c(c4)OCO5)CC3)c2C)CC1` (centres unmarked) [Example 62q] in this work.
A Ki of 1250 nM was found for `Cc1c(C(=O)N2CCC(C(N)=O)(N3CCCCC3)CC2)ncnc1N1CCc2ccc(C(F)(F)F)cc2C1` [Example 78] in this work.
A Ki of 9 nM was found for `COc1c(C(=O)N2CCC(N[C@H]3CCOC[C@H]3OC)CC2)ncnc1N1CCc2ccc(C(F)(F)F)cc2C1` [Example 69b] in this work.
A Ki of 42 nM was found for `COC1COCCC1NC1CCN(C(=O)c2ncnc(N3CCc4ccc(C)cc4C3)c2C)CC1` (centres unmarked) [Example 59] in this work.
A Ki of 357 nM was found for `COC1COCCC1NC1CCN(C(=O)c2ncnc(N3CC4CC4(c4cccc(C(F)(F)F)c4)C3)c2C)CC1` (centres unmarked) [Example 62b] in this work.
A Ki of 5 nM was found for `COC1COCCC1NC1CCN(C(=O)c2ncnc(N3CCc4ccc(C(F)(F)F)cc4C3)c2C)CC1` (centres unmarked) [Example 60] in this work.
A Ki of 983 nM was found for `COC1COCCC1NC1CCN(C(=O)c2ncnc(N3CCC4(CC3)CC(=O)c3ccccc3O4)c2C)CC1` (centres unmarked) [Example 62h] in this work.
A Ki of 1000 nM was found for `COC1COCCC1NC1CCN(C(=O)c2ncnc(N3CCn4cc(C(F)(F)F)nc4C3)c2C)CC1` (centres unmarked) [Example 62ac] in this work.
A Ki of 104 nM was found for `Cc1c(C(=O)N2CCC(N3CCC(O)CC3)CC2)ncnc1N1CCc2ccc(C(F)(F)F)cc2C1` [Example 72] in this work.
A Ki of 1270 nM was found for `COC1COCCC1NC1CCN(C(=O)c2ncnc(N3CCCC(c4ccc(C(F)(F)F)cc4)C3)c2C)CC1` (centres unmarked) [Example 36] in this work.
A Ki of 432 nM was found for `COC1COCCC1NC1CCN(C(=O)c2ncnc(N3CCC(c4ccc(C(F)(F)F)cc4)CC3)c2C)CC1` (centres unmarked) [Example 41] in this work.
A Ki of 30 nM was found for `CO[C@@H]1COCC[C@@H]1NC1CCN(C(=O)c2ccnc(N3CCc4ccc(C(F)(F)F)cc4C3)c2C)CC1` [Example 69a] in this work.
A Ki of 17 nM was found for `COC1COCCC1NC1CCN(C(=O)c2ncnc(N3CCN(c4cc(Cl)cc(Cl)c4)CC3)c2C)CC1` (centres unmarked) [Example 62t] in this work.
A Ki of 22 nM was found for `CO[C@@H]1COCC[C@@H]1NC1CCN(C(=O)c2ncnc(N3CCc4ccc(Cl)cc4C3)c2C)CC1` [Example 66] in this work.
A Ki of 1170 nM was found for `Cc1c(C(=O)N2CCC(N3CCC(N(C)S(C)(=O)=O)CC3)CC2)ncnc1N1CCC(c2ccc(C(F)(F)F)cc2)C1` (centres unmarked) [Example 45] in this work.
A Ki of 1300 nM was found for `Cc1ccc(C2CCN(c3ncnc(C(=O)N4CCC(N5CCC(N(C)S(C)(=O)=O)CC5)CC4)c3C)CC2)cc1` [Example 24] in this work.
A Ki of 331 nM was found for `COC1COCCC1NC1CCN(C(=O)c2ncnc(N3CCC(c4ccc(Cl)cc4)CC3)c2C)CC1` (centres unmarked) [Example 18] in this work.
A Ki of 50 nM was found for `COc1c(C(=O)N2CCC(N3CCC(N(C)S(C)(=O)=O)CC3)CC2)ncnc1N1CCc2ccc(C(F)(F)F)cc2C1` [Example 68] in this work.
A Ki of 235 nM was found for `COC1COCCC1NC1CCN(C(=O)c2ncnc(N3CCc4ccc(C#N)cc4C3)c2C)CC1` (centres unmarked) [Example 55] in this work.
A Ki of 119 nM was found for `COC1COCCC1NC1CCN(C(=O)c2ncnc(N3CCN(c4ccc(C(F)(F)F)cc4)CC3)c2C)CC1` (centres unmarked) [Example 62p] in this work.
A Ki of 1100 nM was found for `COC1COCCC1NC1CCN(C(=O)c2ncnc(N3CCCC(c4cccc(F)c4)C3)c2C)CC1` (centres unmarked) [Example 12] in this work.
A Ki of 145 nM was found for `COC1COCCC1NC1CCN(C(=O)c2ncnc(N3CCN(c4cc(F)cc(F)c4)CC3)c2C)CC1` (centres unmarked) [Example 62ak] in this work.
A Ki of 2150 nM was found for `COC1COCCC1NC1CCN(C(=O)c2ncnc(N3CCCC(c4cccc(C(F)(F)F)c4)C3)c2C)CC1` (centres unmarked) [Example 9] in this work.
A Ki of 1300 nM was found for `Cc1c(C(=O)N2CCC(N3CCC(N(C)S(C)(=O)=O)CC3)CC2)ncnc1-n1ccc2cc(C(F)(F)F)ccc21` [Example 69g] in this work.
A Ki of 5 nM was found for `CO[C@@H]1COCC[C@@H]1N(C)C1CCN(C(=O)c2ncnc(N3CCc4ccc(C(F)(F)F)cc4C3)c2C)CC1` [Example 85] in this work.
A Ki of 189 nM was found for `COC1COCCC1NC1CCN(C(=O)c2ncnc(N3CCN(c4cccc(C(F)(F)F)c4)CC3)c2C)CC1` (centres unmarked) [Example 57] in this work.
A Ki of 39 nM was found for `CO[C@@H]1COCC[C@@H]1NC1CCN(C(=O)c2ncnc(N3CCc4ccc(F)cc4C3)c2C)CC1` [Example 69h] in this work.
A Ki of 411 nM was found for `COC1COCCC1NC1CCN(C(=O)c2ncnc(N3CCN(c4ncnc5scc(C)c45)CC3)c2C)CC1` (centres unmarked) [Example 62r] in this work.
A Ki of 419 nM was found for `COC1COCCC1NC1CCN(C(=O)c2ncnc(N3CCC(c4ccccc4Cl)C3)c2C)CC1` (centres unmarked) [Example 62e] in this work.
A Ki of 5140 nM was found for `COC1COCCC1NC1CCN(C(=O)c2ncnc(N3CCn4c(-c5ccccc5)cnc4C3)c2C)CC1` (centres unmarked) [Example 62s] in this work.
A Ki of 1100 nM was found for `Cc1c(C(=O)N2CCC(N3CCC(N(C)S(C)(=O)=O)CC3)CC2)ncnc1N1CCC(c2ccc(Cl)cc2)C1` (centres unmarked) [Example 47] in this work.
A Ki of 168 nM was found for `COC1COCCC1NC1CCN(C(=O)c2ncnc(N3CCc4c(Cl)cccc4C3)c2C)CC1` (centres unmarked) [Example 38] in this work.
A Ki of 41 nM was found for `COC1COCCC1NC1CCN(C(=O)c2ncnc(N3CCN(c4cccc(C)c4C)CC3)c2C)CC1` (centres unmarked) [Example 62ah] in this work.
A Ki of 172 nM was found for `COC1COCCC1NC1CCN(C(=O)c2ncnc(N3CCC(c4ccc(Cl)cc4)C3)c2C)CC1` (centres unmarked) [Example 53] in this work.
A Ki of 925 nM was found for `Cc1c(C(=O)N2CCC(N(C)C)CC2)ncnc1N1CCc2ccc(C(F)(F)F)cc2C1` [Example 79] in this work.
A Ki of 2320 nM was found for `Cc1c(C(=O)N2CCCN(C)CC2)ncnc1N1CCc2ccc(C(F)(F)F)cc2C1` [Example 81] in this work.
A Ki of 336 nM was found for `COC1COCCC1NC1CCN(C(=O)c2ncnc(N3CCN(c4ccc5c(c4)OCCO5)CC3)c2C)CC1` (centres unmarked) [Example 62ad] in this work.
A Ki of 1020 nM was found for `COC1COCCC1NC1CCN(C(=O)c2ncnc(N3CCN(c4ccc(C(F)(F)F)cn4)CC3)c2C)CC1` (centres unmarked) [Example 56] in this work.
A Ki of 739 nM was found for `COC1COCCC1NC1CCN(C(=O)c2ncnc(N3CCC(c4ccc(C)cc4)CC3)c2C)CC1` (centres unmarked) [Example 13] in this work.
A Ki of 230 nM was found for `COC1COCCC1NC1CCN(C(=O)c2ncnc(N3CCC(c4cccc(C(F)(F)F)c4)CC3)c2C)CC1` (centres unmarked) [Example 42] in this work.
A Ki of 41 nM was found for `CO[C@H]1COCC[C@H]1N(C)C1CCN(C(=O)c2ncnc(N3CCc4ccc(C(F)(F)F)cc4C3)c2C)CC1` [Example 84] in this work.
A Ki of 1640 nM was found for `Cc1c(C(=O)N2CCC(N3CCC(N(C)S(C)(=O)=O)CC3)CC2)ncnc1N1CCC2(CCc3ccccc32)CC1` [Example 6] in this work.
A Ki of 1090 nM was found for `COC1COCCC1NC1CCN(C(=O)c2ncnc(N3CCOC(c4ccc(Cl)cc4)C3)c2C)CC1` (centres unmarked) [Example 4] in this work.
A Ki of 2110 nM was found for `COC1COCCC1NC1CCN(C(=O)c2ncnc(N3CCCC(c4ccc(C)cc4)C3)c2C)CC1` (centres unmarked) [Example 33] in this work.
A Ki of 18 nM was found for `Cc1c(C(=O)N2CCC(N3CCC(NS(C)(=O)=O)CC3)CC2)ncnc1N1CCc2ccc(C(F)(F)F)cc2C1` [Example 37] in this work.
A Ki of 3560 nM was found for `Cc1c(C(=O)N2CCN(C)CC2)ncnc1N1CCc2ccc(C(F)(F)F)cc2C1` [Example 70] in this work.
A Ki of 2860 nM was found for `Cc1c(C(=O)N2CCC(N3CCC(N(C)S(C)(=O)=O)CC3)CC2)ncnc1N1CCCCC1c1cccc(Cl)c1` (centres unmarked) [Example 35] in this work.
A Ki of 52 nM was found for `Cc1c(C(=O)N2CCC(N3CCCC3)CC2)ncnc1N1CCc2ccc(C(F)(F)F)cc2C1` [Example 73] in this work.
A Ki of 3600 nM was found for `COC1COCCC1NC1CCN(C(=O)c2ncnc(N3CCCC(c4ccc(F)cc4)C3)c2C)CC1` (centres unmarked) [Example 32] in this work.
A Ki of 114 nM was found for `COC1COCCC1NC1CCN(C(=O)c2ncnc(N3CCN(c4ccc(F)c(Cl)c4)CC3)c2C)CC1` (centres unmarked) [Example 62u] in this work.
A Ki of 451 nM was found for `COC1COCCC1NC1CCN(C(=O)c2ncnc(N3CCC(c4ccccc4)C3)c2C)CC1` (centres unmarked) [Example 50] in this work.
A Ki of 0.7 nM was found for `CO[C@H]1COCC[C@H]1NC1CCN(C(=O)c2nc(C3CC3)nc(N3CCc4ccc(C(F)(F)F)cc4C3)c2C)CC1` [Example 69q] in this work.
A Ki of 270 nM was found for `COC1COCCC1NC1CCN(C(=O)c2ncnc(N3CCC(c4cccc(C(F)(F)F)c4)C3)c2C)CC1` (centres unmarked) [Example 52] in this work.
A Ki of 1510 nM was found for `COC1COCCC1NC1CCN(C(=O)c2ncnc(N3CCC(c4ccccc4)CC3)c2C)CC1` (centres unmarked) [Example 16] in this work.
A Ki of 636 nM was found for `COC1COCCC1NC1CCN(C(=O)c2ncnc(N3CCc4ccccc4CC3)c2C)CC1` (centres unmarked) [Example 54] in this work.
A Ki of 538 nM was found for `COC1COCCC1NC1CCN(C(=O)c2ncnc(N3CCC4(CC3)CC(=O)c3cc(F)ccc3O4)c2C)CC1` (centres unmarked) [Example 62g] in this work.
A Ki of 101 nM was found for `Cc1c(C(=O)N2CCC(N3CCCCC3)CC2)ncnc1N1CCc2ccc(C(F)(F)F)cc2C1` [Example 80] in this work.
A Ki of 4410 nM was found for `COc1ccc(C2CCN(c3ncnc(C(=O)N4CCC(N5CCC(N(C)S(C)(=O)=O)CC5)CC4)c3C)CC2)cc1` [Example 21] in this work.
A Ki of 159 nM was found for `COC1COCCC1NC1CCN(C(=O)c2ncnc(N3CCC(c4ccc(C(F)(F)F)cc4)C3)c2C)CC1` (centres unmarked) [Example 48] in this work.
